According to US11518742B2 (priority 2020, dated 2022):

Experiments:
[1] = Solid form characterisation of 5MeODMT benzoate lots (XRPD, DSC, TGA, 1H NMR); settings: predominantly Pattern E lots
ovine nasal epithelium = assay: Permeation through ovine nasal epithelium; assay type: in vitro ADME; settings: for Cumulative amount (μg/cm^2): […] dosing solution in water, mean, n=5; for Permeation compared with the hydrochloride salt: across ovine nasal epithelium
From the text: The use of ovine nasal epithelium to study nasal drug absorption is a technique which is well known to the person skilled in the art.

[2] = Dynamic Vapour Sorption (DVS); assay type: physicochemical
Method: A modified DVS isotherm of lot 20/45/006-FP (the same crystalline version) was undertaken to examine material behaviour from 60% RH and above. […] This is to obtain in-depth profiling of the material towards humidity at these elevated levels.
Temperature and humidity are important factors in the processing and storage of pharmaceuticals. DVS provides a versatile and sensitive technique for evaluating the stability of pharmaceutical formulations.
The solution was clarified into a 500 ml round bottom flask, the round bottom flask was rotated in an acetone/dry ice bath to freeze the solution in a thin layer around the flask. The ice was sublimed in vacuo at ambient temperature affording a fluffy white solid. The solid was removed from the round bottom flask and transferred to the DVS instrument. During this transfer, the solid collapsed to a sticky gum.
The sample was examined by DVS from 40% RH and cycled between 0% RH and 90% RH twice.
XRPD was collected on a portion of the sample post-lyophoilisation and post-DVS examination.

[3] = tested on: Slugs (Arion lusitanicus); assay type: in vivo; settings: Example 8; for Total MP (% body weight): Concentration (w/v) 10%
From the text: The Slug Mucosal Irritation (SMI) assay was initially developed at the Laboratory of Pharmaceutical Technology (UGent) to predict the mucosal irritation potency of pharmaceutical formulations and ingredients. The test utilizes the terrestrial slug Arion lusitanicus. The body wall of the slugs is a mucosal surface composed of different layers.
The outer single-layered columnar epithelium that contains cells with cilia, cells with micro-villi and mucus secreting cells covers the subepithelial connective tissue. Slugs that are placed on an irritating substance will produce mucus. Additionally tissue damage can be induced which results in the release of proteins and enzymes from the mucosal surface. […] A classification prediction model that distinguishes between irritation (mucus production) and tissue damage (release of proteins and enzymes) has been developed. […] A 5% shampoo dilution or artificial tears were instilled in the eye and the discomfort was scored by the participants on a 5 point scale during several time points up to 30 min after instillation. The same shampoos were tested in the SMI assay using the Stinging, Itching and Burning (SIB) protocol.
The purpose of this assay was to assess the stinging, itching or burning potential of the test item(s) defined below. Using the objective values obtained for the mucus production the stinging, itching or burning potential of the test item(s) can be estimated by means of the prediction model that is composed of four categories (no, mild, moderate and severe).
Test System: Slugs (Arion lusitanicus); 3 slugs per treatment group. The parental slugs of Arion lusitanicus collected in local gardens along Gent and Aalter (Belgium) are bred in the laboratory in an acclimatized room (18-20° C.). The slugs are housed in plastic containers and fed with lettuce, cucumber, carrots and commercial dog food.
Test Design: A single study was performed.
Slugs weighing between 3 and 6 g were isolated from the cultures two days before the start of an experiment. The body wall was inspected carefully for evidence of macroscopic injuries. […] The slugs were placed in a plastic box lined with paper towel moistened with PBS and were kept at 18-20° C. Daily the body wall of the slugs was wetted with 300 μl PBS using a micropipette.
An overview of this can be seen in FIG. 4.
The mucus production was expressed as % of the body weight.
Based on the endpoint of the SMI assay the stinging, itching or burning potency of the test item(s) was estimated using a classification prediction model.
The evaluation of the test results was based upon the total amount of mucus production during 3 repeated contact periods with the test item.
For each slug, the mucus production was expressed in % of the body weight by dividing the weight of the mucus produced during each contact period by the body weight of the slug before the start of that contact period. The total mucus was calculated for each slug and then the mean per treatment group was calculated. The classification prediction model shown in Table 1 was used to classify the compounds.

[4] = Controlled cooling crystallisation: solubility in minimal solvent at 50 °C; assay type: physicochemical; settings: 50° C.
Method: (detailed in the Table below). The solutions were clarified through a 0.45 μm Teflon syringe filter into pre-heated crystallisation tubes and cooled from 50° C. to −10° C. over 60 hours (1° C. Hr-1 cooling rate) and held at −10° C. for 50 hours (no agitation).
Solutions were clarified into crystallisation tubes at 50° C. and were cooled to −10° C. at a rate of 10° C.·hr-1, then equilibrated at −10° C. for 12 hours, then agitated at −10° C. at 400 rpm for 30 minutes which afforded a mobile suspension for all samples except Sample I which remained a solution. Further equilibration with agitation at −10° C. at 400 rpm for 3 hours afforded a thin suspension. All samples were isolated via isolute cartridge and air dried for 5 minutes before characterisation.

[5] = Stability of solid forms (Patterns A, B, C) open to atmosphere and in vacuo at 50 °C, by XRPD; assay type: physicochemical
Method: XRPD was performed regularly. DSC and 1H NMR spectroscopy were performed on samples where significant differences to the diffraction patterns were observed.

COc1ccc2[nH]cc(CCN(C)C)c2c1.O=C(O)c1ccccc1 [5MeODMT benzoate 21-01-064 C]
Crystalline character [1]: Pattern E

COc1ccc2[nH]cc(CCN(C)C)c2c1.O=C(O)c1ccccc1
Crystalline character [1]: Pattern E

COc1ccc2[nH]cc(CCN(C)C)c2c1.Cl [5MeODMT HCl, 5MeODMT hydrochloride]
Cumulative amount (μg/cm^2) (ovine nasal epithelium; Time 0.0 min): 0.00 μg/cm^2 | Cumulative amount (μg/cm^2) (ovine nasal epithelium; Time 10.0 min): 0.33 μg/cm^2 | Cumulative amount (μg/cm^2) (ovine nasal epithelium; Time 20.0 min): 3.30 μg/cm^2 | Cumulative amount (μg/cm^2) (ovine nasal epithelium; Time 30.0 min): 8.26 μg/cm^2 | Cumulative amount (μg/cm^2) (ovine nasal epithelium; Time 40.0 min): 13.33 μg/cm^2 | Cumulative amount (μg/cm^2) (ovine nasal epithelium; Time 50.0 min): 18.77 μg/cm^2 | Cumulative amount (μg/cm^2) (ovine nasal epithelium; Time 60.0 min): 23.43 μg/cm^2 | Cumulative amount (μg/cm^2) (ovine nasal epithelium; Time 75.0 min): 29.52 μg/cm^2 | State of material upon completion of the DVS cycle ([2]; lot 20/20/126-FP): completed deliquesced | Moisture uptake ([2]; lot 20/20/126-FP, 0-70% RH): less than 0.3 % w/w | Moisture uptake ([2]; lot 20/20/126-FP, 70-80% RH, first sorption cycle): Approximately 23 % w/w | Retained mass above the minimum mass recorded at 0% RH ([2]; lot 20/20/126-FP, subsequent cycles): 6-9 % w/w | Further moisture uptake ([2]; lot 20/20/126-FP, up to and when held at 90% RH): 20 % w/w | Moisture increase ([2]; lot 20/45/006-FP, 70-75% RH): ca. 0.46 % w/w | Moisture uptake ([2]; lot 20/45/006-FP, 75-80% RH): ca. 7% | Moisture uptake ([2]; lot 20/45/006-FP, 80-85% RH): ca. 40% | State of material post DVS analysis ([2]; lot 20/45/006-FP, likely above 80% RH): Complete deliquescence | Irritation score on SMI testing [3]: moderate | Total MP (% body weight) [3]: 10.27 % body weight

COc1ccc2[nH]cc(CCN(C)C)c2c1.O=C(O)c1ccccc1 [5MeODMT benzoate]
Cumulative amount (μg/cm^2) (ovine nasal epithelium; Time 0.0 min): 0.00 μg/cm^2 | Cumulative amount (μg/cm^2) (ovine nasal epithelium; Time 10.0 min): 0.20 μg/cm^2 | Cumulative amount (μg/cm^2) (ovine nasal epithelium; Time 20.0 min): 3.46 μg/cm^2 | Cumulative amount (μg/cm^2) (ovine nasal epithelium; Time 30.0 min): 9.30 μg/cm^2 | Cumulative amount (μg/cm^2) (ovine nasal epithelium; Time 40.0 min): 15.46 μg/cm^2 | Cumulative amount (μg/cm^2) (ovine nasal epithelium; Time 50.0 min): 21.51 μg/cm^2 | Cumulative amount (μg/cm^2) (ovine nasal epithelium; Time 60.0 min): 27.30 μg/cm^2 | Cumulative amount (μg/cm^2) (ovine nasal epithelium; Time 75.0 min): 33.34 μg/cm^2 | Cumulative amount (μg/cm^2) (ovine nasal epithelium; Time 90.0 min): 39.77 μg/cm^2 | Permeation compared with the hydrochloride salt (ovine nasal epithelium; listed as 5MeODMT benzoate salt): higher permeation | Permeation compared with the hydrochloride salt (ovine nasal epithelium; listed as benzoate salt): higher permeation across the epithelium | Permeation compared with the hydrochloride salt (ovine nasal epithelium; listed as benzoate salt of 5MeODMT): higher permeation | Solubility (mg · mL^1) ([4]; 2-MeTHF): 31.25 mg · mL^1 | Solubility (mg · mL^1) ([4]; 3-methyl-1-butanol): 31.25 mg · mL^1 | Solubility (mg · mL^1) ([4]; Acetone): 62.5 mg · mL^1 | Solubility (mg · mL^1) ([4]; Chlorobenzene): 12.5 mg · mL^1 | Solubility (mg · mL^1) ([4]; IPA): 42 mg · mL^1 | Solubility (mg · mL^1) ([4]; MEK): 62.5 mg · mL^1 | Solubility (mg · mL^1) ([4]; MeCN): 50 mg · mL^1 | Solubility (mg · mL^1) ([4]; MeOH): 250 mg · mL^1 | Solubility (mg · mL^1) ([4]; MeOH:TBME (1:1)): 125 mg · mL^1 | Solubility (mg · mL^1) ([4]; Nitromethane): 125 mg · mL^1 | Solubility (mg · mL^1) ([4]; THF): 83 mg · mL^1 | Solubility (mg · mL^1) ([4]; iPrOAc): 12.5 mg · mL^1 | Form/version modification on exposure to variable humidity [2]: no evidence of form/version modification | Stability by DVS profile compared with the hydrochloride salt [2]: significantly higher | Maximum water uptake/loss ([2]; from 0 to 90% humidity): ~0.20% | Irritation score on SMI testing [3]: mild | Total MP (% body weight) [3]: 7.38 % body weight

COc1ccc2[nH]cc(CCN(C)C)c2c1.O=C(O)c1ccccc1 [Pattern B form]
Solid form stability ([5]; open to atmosphere at ca. 20° C., up to 12 days): stable

COc1ccc2[nH]cc(CCN(C)C)c2c1.O=C(O)c1ccccc1 [21-01-071 C1, Pattern C]
XRPD pattern throughout drying, Day 2 ([5]; In vacuo at 50° C., Day 2): B + A | XRPD pattern throughout drying, Day 3 ([5]; In vacuo at 50° C., Day 3): A + B | XRPD pattern throughout drying, Day 1 ([5]; Open to atmosphere at 20 ± 2° C., Day 1): C + B | XRPD pattern throughout drying, Day 4 ([5]; Open to atmosphere at 20 ± 2° C., Day 4): C + B | XRPD pattern throughout drying, Day 6 ([5]; Open to atmosphere at 20 ± 2° C., Day 6): C + B | XRPD pattern throughout drying, Day 8 ([5]; Open to atmosphere at 20 ± 2° C., Day 8): C + B | XRPD pattern throughout drying, Day 12 ([5]; Open to atmosphere at 20 ± 2° C., Day 12): C + B
